This note sets out measurements from PubChem BioAssay (NCI).

Structures are written as SMILES. Where “and” joins values, the source holds several entries; their conditions need not be identical. Equal values may be shown once.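 96-well plates; 48 h exposure; 5 concentrations. Endpoints by linear interpolation between flanking doses. Not reached: highest tested concentration assigned. The concentration for 50% growth inhibition is given as GI50. TGI: concentration producing complete growth inhibition.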

Some test systems named below: OVCAR-8 ovarian; NCI-H23 lung; NCI-H522 lung; RPMI-8226 leukemia; SF-268 CNS; OVCAR-3 ovarian; UO-31 renal; CCRF-CEM leukemia; HOP-92 NSCLC; NCI/ADR-RES ovarian.
Common to all, as to test: NCI-60 cell line screen, 48 h

As to `CCOC(=O)c1cc2c(n1Cc1cccc(OC)c1)-c1oncc1CCC2`, the GI50 is 3210 nM with OVCAR-8 ovarian; 8680 nM in the assay on NCI-H23 lung; 222 nM in the assay with NCI-H522 lung; 1810 nM in the assay with RPMI-8226 leukemia; 9030 nM with SF-268 CNS; 372 nM in the assay on OVCAR-3 ovarian. The GI50 with UO-31 renal was 4480 nM; in the assay on CCRF-CEM leukemia, 2170 nM; in the assay with HOP-92 NSCLC, 2680 nM; in the assay with NCI/ADR-RES ovarian, 690 nM. In addition, the TGI in the assay with OVCAR-8 ovarian was > 100000 nM; in the assay with NCI-H23 lung it was > 100000 nM; with NCI-H522 lung it was 704 nM; with RPMI-8226 leukemia, > 43000 nM; in the assay with SF-268 CNS, > 100000 nM; in the assay on OVCAR-3 ovarian, 4530 nM. For the same compound, the TGI in the assay on UO-31 renal was > 100000 nM; in the assay on CCRF-CEM leukemia, > 100000 nM; in the assay with HOP-92 NSCLC it was 49200 nM; in the assay on NCI/ADR-RES ovarian, > 21700 nM.
As to `CC1CC2OC(=O)C(C)C2CC2(C)C(OC3OC(CO)C(O)C(O)C3O)OCCC12` (stereo unspecified), the TGI with OVCAR-8 ovarian, in the assay on NCI-H23 lung, with NCI-H522 lung, with RPMI-8226 leukemia, in the assay with SF-268 CNS and in the assay on OVCAR-3 ovarian was > 100000 nM each time. In addition, the TGI in the assay with CCRF-CEM leukemia, in the assay with HOP-92 NSCLC and in the assay with NCI/ADR-RES ovarian was > 100000 nM each time.
In the case of `CCCCC[C@H]1C/C=C2/C(=O)C=C[C@@H]2C/C=C\CCCC(=O)O[C@@H](CCCCC)C/C=C2/C(=O)C=C[C@@H]2C/C=C\CCCC(=O)O1`, the GI50 in the assay with OVCAR-8 ovarian is 112 nM; with NCI-H23 lung, 289 nM; with NCI-H522 lung it was 160 nM; in the assay on RPMI-8226 leukemia, 98 nM; with SF-268 CNS it was 442 nM; in the assay with OVCAR-3 ovarian, 95.5 nM. Moreover, the GI50 in the assay with UO-31 renal was 394 nM; in the assay with CCRF-CEM leukemia it was 82 nM; in the assay on HOP-92 NSCLC it was 593 nM; in the assay with NCI/ADR-RES ovarian, 776 nM. Also, the TGI in the assay on OVCAR-8 ovarian was found to be 2700 nM; in the assay on NCI-H23 lung, 822 nM; with NCI-H522 lung, 655 nM; with RPMI-8226 leukemia, 599 nM; in the assay on SF-268 CNS it was 1750 nM; in the assay with OVCAR-3 ovarian it was 353 nM. The TGI in the assay on UO-31 renal was found to be 750 nM; in the assay on CCRF-CEM leukemia it was 1420 nM; with HOP-92 NSCLC, 1200 nM; in the assay with NCI/ADR-RES ovarian, 4570 nM.
Turning to `COC(=O)[C@@]12OC[C@]34[C@H]([C@@H](O)[C@@H]1O)[C@@]1(C)[C@H](O)C(=O)C=C(C)[C@@H]1C[C@H]3OC(=O)C(OC(C)=O)[C@@H]24` (stereo partly specified), the GI50 was 37.1 nM in the assay on OVCAR-8 ovarian; 18.7 nM with NCI-H23 lung; < 11.1 nM in the assay on NCI-H522 lung; 17 nM in the assay with RPMI-8226 leukemia; 42.8 nM with SF-268 CNS; 24.8 nM in the assay on OVCAR-3 ovarian. The figures for the GI50 in the assay with UO-31 renal, with HOP-92 NSCLC and with NCI/ADR-RES ovarian were 113 nM, 36.4 nM and 904 nM, respectively. Also, the TGI with OVCAR-8 ovarian was 266 nM; with NCI-H23 lung, 56.7 nM; in the assay with NCI-H522 lung it was 41 nM; in the assay on RPMI-8226 leukemia, 39.6 nM; in the assay with SF-268 CNS it was 231 nM; with OVCAR-3 ovarian it was 71.4 nM. Also, the values for the TGI in the assay on UO-31 renal, in the assay with HOP-92 NSCLC and in the assay with NCI/ADR-RES ovarian were 449 nM, 309 nM and 8530 nM, respectively.
On to `C#CC1(O)C(COP(=O)(O)OC(COCCCCCCCCCCCCCCCCCC)COP(=O)(O)OCC2OC(n3cc(F)c(=O)[nH]c3=O)CC2O)OC(n2ccc(N)nc2=O)C1O` (stereo unspecified), for which the GI50 in the assay on OVCAR-8 ovarian was 92.2 nM and 280 nM; with NCI-H23 lung, 613 nM and 2280 nM; in the assay on NCI-H522 lung it was < 37.7 nM and 75.8 nM; in the assay with UO-31 renal, < 37.6 nM and 115 nM; with CCRF-CEM leukemia, 115 nM and 965 nM; in the assay with HOP-92 NSCLC, 33400 nM. For the same compound, the TGI with OVCAR-8 ovarian is > 60900 nM; in the assay on NCI-H23 lung, 20700 nM and 33100 nM; in the assay with NCI-H522 lung, 223 nM and 1520 nM; in the assay on SF-268 CNS it was 15900 nM and 15100 nM; in the assay with OVCAR-3 ovarian, > 29100 nM and 23400 nM; with UO-31 renal, 1150 nM and 4260 nM. Moreover, the TGI in the assay on CCRF-CEM leukemia is 15300 nM and > 70600 nM; with HOP-92 NSCLC, 10600 nM and > 95600 nM; in the assay on NCI/ADR-RES ovarian, 8280 nM and 30500 nM.
Take `O=c1cc(-c2ccccc2F)[nH]c2ccc(N3CCCC3)cc12`: the GI50 with OVCAR-8 ovarian was < 1 nM; in the assay with NCI-H23 lung, 199 nM; with NCI-H522 lung, < 1 nM; with RPMI-8226 leukemia, < 1 nM; with SF-268 CNS it was < 1 nM; with CCRF-CEM leukemia, < 1 nM. The GI50 with NCI/ADR-RES ovarian is < 1 nM. The TGI in the assay with CCRF-CEM leukemia and in the assay with HOP-92 NSCLC was > 100000 nM in each case.
Turning to `COc1c(O)cc2oc(-c3ccc(O)cc3)cc(=O)c2c1O`, the TGI with NCI-H23 lung, in the assay with NCI-H522 lung, in the assay on RPMI-8226 leukemia, in the assay on SF-268 CNS, in the assay on OVCAR-3 ovarian and in the assay with UO-31 renal was > 100000 nM each time. Moreover, the TGI with CCRF-CEM leukemia is 65100 nM; with HOP-92 NSCLC, 36800 nM; with NCI/ADR-RES ovarian, > 100000 nM.
Regarding `Cc1cc(C(=C2C=CC(=Nc3ccccc3)C=C2)c2ccc(Nc3ccccc3)cc2)ccc1N`, the GI50 was 254 nM with OVCAR-8 ovarian; 382 nM with NCI-H23 lung; 203 nM with NCI-H522 lung; 651 nM in the assay on SF-268 CNS; 293 nM in the assay on OVCAR-3 ovarian; 305 nM in the assay on UO-31 renal. The figures for the GI50 with CCRF-CEM leukemia, in the assay on HOP-92 NSCLC and with NCI/ADR-RES ovarian were 352 nM, 475 nM and 643 nM, respectively. In addition, the TGI in the assay on OVCAR-8 ovarian was found to be 913 nM; in the assay on NCI-H23 lung it was 1690 nM; in the assay on NCI-H522 lung, 602 nM; in the assay with SF-268 CNS, 1830 nM; in the assay with OVCAR-3 ovarian, 876 nM; with UO-31 renal, 1380 nM. In addition, the TGI in the assay with CCRF-CEM leukemia is > 100000 nM; with HOP-92 NSCLC it was 1730 nM; in the assay with NCI/ADR-RES ovarian, 2220 nM.
Consider `Cc1cc(O)c(C2=NN(c3ccc(S(N)(=O)=O)cc3)C(c3ccccc3Cl)C2)cc1Cl` (stereo unspecified), for which the GI50 in the assay on OVCAR-8 ovarian is 2940 nM; in the assay with NCI-H23 lung it was 1790 nM; in the assay with NCI-H522 lung, 1890 nM; with RPMI-8226 leukemia, 2980 nM; in the assay with OVCAR-3 ovarian it was 1890 nM; in the assay on UO-31 renal, 2660 nM. The GI50 is 4810 nM in the assay with CCRF-CEM leukemia, 1940 nM in the assay with HOP-92 NSCLC and 2700 nM in the assay with NCI/ADR-RES ovarian. Besides, the TGI in the assay with OVCAR-8 ovarian worked out at 11200 nM; in the assay on NCI-H23 lung, 3580 nM; in the assay on NCI-H522 lung it was 3970 nM; with RPMI-8226 leukemia, 8350 nM; with OVCAR-3 ovarian, 3580 nM; with UO-31 renal, 16200 nM. Besides, the TGI is > 100000 nM in the assay on CCRF-CEM leukemia, 6320 nM in the assay on HOP-92 NSCLC and 6850 nM in the assay on NCI/ADR-RES ovarian.
